Publication PMC6825221, “In silico re-engineering of a neurotransmitter to activate KCNQ potassium channels in an isoform-specific manner” (Communications Biology, 2019)
Several values for one entry are separate records, joined by “and”; a condition that tells them apart may be missing. Identical values can stand only once. Entries after “also recorded” stand apart in the source; their conditions may differ. Like-named read-outs stand apart in the source and are kept apart here.

Assays:
KCNQ4 = KCNQ4 (Homo sapiens, UniProt P56696); assay: TEVC of homomeric KCNQ4 expressed in Xenopus oocytes; type: cell-based; details: for effects on KCNQ4: dose response
Text: (§1) We generated cRNA transcripts encoding human KCNQ1, KCNQ2, KCNQ3, KCNQ4, KCNQ5 or GLRA1 (NM_001146040) (GenScript, Piscataway, NJ, USA) by in vitro transcription using the T7 polymerase mMessage mMachine kit (Thermo Fisher Scientific), after vector linearization, from cDNA sub-cloned into plasmids incorporating Xenopus laevis β-globin 5′ and 3′ UTRs flanking the coding region to enhance translation and cRNA stability. We quantified cRNA by spectrophotometry. We generated mutant KCNQ2 and KCNQ3 cDNAs by site-directed mutagenesis using a QuikChange kit (Stratagene, San Diego, CA) and prepared the corresponding cRNAs as above. We injected defolliculated stage V and VI Xenopus laevis oocytes (Ecocyte Bioscience, Austin, TX and Xenoocyte, Dexter, MI) with KCNQ channel α subunit (5-20 ng) or GLRA1 (20 ng) cRNAs. We incubated the oocytes at 16 °C in Barth’s saline solution (Ecocyte Bioscience) containing penicillin and streptomycin, with daily washing, for 2–5 days prior to two-electrode voltage-clamp (TEVC) recording.
(§2) We performed TEVC at room temperature using an OC-725C amplifier (Warner Instruments, Hamden, CT) and pClamp10 software (Molecular Devices, Sunnyvale, CA) 2–5 days after cRNA injection as described in the section above. For recording, oocytes were placed in a small-volume oocyte bath (Warner) and viewed them with a dissection microscope. Chemicals were sourced from Sigma, Matrix Scientific and Santa Cruz. […] All stock solutions were diluted in bath solution on the day of experiments. KCNQ2/3 channel activation was screened for using either 30 µM or 100 µM concentrations of each of the six compounds, then dose responses were conducted as appropriate. Bath solution was (in mM): 96 NaCl, 4 KCl, 1 MgCl2, 1 CaCl2, 10 HEPES (pH 7.6). Compounds were introduced into the oocyte recording bath by gravity perfusion at a constant flow of 1 ml per minute for 3 min prior to recording. Pipettes were of 1–2 MΩ resistance when filled with 3 M KCl. Currents were recorded in response to voltage pulses between −120 or −80 mV and + 40 mV at 20 mV intervals from a holding potential of −80 mV, to yield current-voltage relationships, current magnitude, and for quantifying activation rate. We analyzed data using Clampfit (Molecular Devices) and Graphpad Prism software (GraphPad, San Diego, CA, USA); values are stated as mean ± SEM. We plotted raw or normalized tail currents versus prepulse voltage and fitted with a single Boltzmann function:1 g=(A1−A2)/1+exp(V12−V)∕VS+A2, where g is the normalized tail conductance, A1 is the initial value at −∞, A2 is the final value at +∞, V1/2 is the half-maximal voltage of activation and Vs the slope factor. Activation, deactivation, wash-in and washout kinetics were fitted with single exponential functions to yield a τ value.

KCNQ3* [1] = molecular target: T1, KCNQ3* (Homo sapiens, UniProt O43525, A315T); assay: TEVC of homomeric KCNQ3* (A315T KCNQ3 mutant) expressed in Xenopus oocytes; type: cell-based; details: dose response
Text: We next validated the in silico predictions using two-electrode voltage clamp of homomeric neuronal KCNQ2-5 channel isoforms expressed in Xenopus laevis oocytes. […] As in previous studies[8],[10], we used the A315T KCNQ3 mutant (KCNQ3*) that ensures large enough currents to accurately quantify voltage dependence and pharmacology of homomeric KCNQ3[16].
as §1
as §2, with “We plotted raw or normalized tail currents versus prepulse voltage and fitted with a single Boltzmann function:1 g=(A1−A2)/1+exp(V12−V)∕VS+A2, where g is the normalized tail conductance, A1 is the initial value at −∞, A2 is the final value at +∞, V1/2 is the half-maximal voltage of activation and Vs the slope factor. Activation, deactivation, wash-in and washout kinetics were fitted with single exponential functions to yield a τ value.” left out

KCNQ5 [2] = molecular target: T2, KCNQ5 (Homo sapiens, UniProt Q9NR82); assay: TEVC of homomeric KCNQ5 expressed in Xenopus oocytes; type: cell-based; details: dose response
Text: as §1
(§3) We performed TEVC at room temperature using an OC-725C amplifier (Warner Instruments, Hamden, CT) and pClamp10 software (Molecular Devices, Sunnyvale, CA) 2–5 days after cRNA injection as described in the section above. For recording, oocytes were placed in a small-volume oocyte bath (Warner) and viewed them with a dissection microscope. Chemicals were sourced from Sigma, Matrix Scientific and Santa Cruz. […] All stock solutions were diluted in bath solution on the day of experiments. KCNQ2/3 channel activation was screened for using either 30 µM or 100 µM concentrations of each of the six compounds, then dose responses were conducted as appropriate. […] Currents were recorded in response to voltage pulses between −120 or −80 mV and + 40 mV at 20 mV intervals from a holding potential of −80 mV, to yield current-voltage relationships, current magnitude, and for quantifying activation rate. We analyzed data using Clampfit (Molecular Devices) and Graphpad Prism software (GraphPad, San Diego, CA, USA); values are stated as mean ± SEM. […]

KCNQ2/3 [3] = molecular target: T3, KCNQ2/3 (Homo sapiens, UniProt O43525+O43526); assay: TEVC of KCNQ2/3 channels expressed in Xenopus oocytes; type: cell-based; details: TEVC in oocytes; for EC50: shift in voltage dependence of activation (ΔV0.5act)
Text: as §1, with “We generated mutant KCNQ2 and KCNQ3 cDNAs by site-directed mutagenesis using a QuikChange kit (Stratagene, San Diego, CA) and prepared the corresponding cRNAs as above.” left out
as §2, with “For” for “We performed TEVC at room temperature using an OC-725C amplifier (Warner Instruments, Hamden, CT) and pClamp10 software (Molecular Devices, Sunnyvale, CA) 2–5 days after cRNA injection as described in the section above. For”

KCNQ1 [4] = molecular target: T4, KCNQ1 (Homo sapiens, UniProt P51787); assay: TEVC of homomeric KCNQ1 expressed in Xenopus oocytes; type: cell-based
Text: as §1, §3

KCNQ2 [5] = molecular target: T5, KCNQ2 (Homo sapiens, UniProt O43526); assay: TEVC of homomeric KCNQ2 expressed in Xenopus oocytes; type: cell-based
Text: as §1, with “We generated mutant KCNQ2 and KCNQ3 cDNAs by site-directed mutagenesis using a QuikChange kit (Stratagene, San Diego, CA) and prepared the corresponding cRNAs as above.” left out
as §2, with “For” for “We performed TEVC at room temperature using an OC-725C amplifier (Warner Instruments, Hamden, CT) and pClamp10 software (Molecular Devices, Sunnyvale, CA) 2–5 days after cRNA injection as described in the section above. For”

GLRA1 = molecular target: T6, GLRA1 (Homo sapiens, UniProt P23415); assay: TEVC of glycine receptor GLRA1 expressed in Xenopus oocytes; type: cell-based; details: 1 mM, compound alone
T6 sequence (P23415 29-457): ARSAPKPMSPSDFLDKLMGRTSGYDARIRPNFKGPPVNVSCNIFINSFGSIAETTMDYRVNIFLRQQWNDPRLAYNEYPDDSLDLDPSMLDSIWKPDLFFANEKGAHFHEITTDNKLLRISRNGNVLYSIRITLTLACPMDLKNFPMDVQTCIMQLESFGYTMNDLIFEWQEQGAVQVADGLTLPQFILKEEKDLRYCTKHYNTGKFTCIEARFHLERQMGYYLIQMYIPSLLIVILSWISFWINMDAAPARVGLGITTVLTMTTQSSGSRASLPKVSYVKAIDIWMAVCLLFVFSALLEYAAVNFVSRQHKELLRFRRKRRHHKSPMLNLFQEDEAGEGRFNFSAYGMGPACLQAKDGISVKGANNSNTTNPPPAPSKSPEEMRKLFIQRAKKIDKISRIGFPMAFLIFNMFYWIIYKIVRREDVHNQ
Text: as §1, §2

KCNQ2/3 [6] = molecular target: T3, KCNQ2/3
Procedure: (§4) Oocytes were then washed four times in 16 °C ND96, transferred to individual wells in a 96 well plate and lysed in 0.2% SDS in ND96. Each oocyte lysate was transferred to a scintillation vial containing 5 ml Cytoscint scintillation cocktail fluid (MP Biomedicals, Santa Ana, CA). Vials were capped, shaken, and then allowed to sit at room temperature for at least 30 min before scintillation counting in a Beckmann Coulter LS6500 liquid scintillation counter.

KCNQ5 [7] = molecular target: T2, KCNQ5; design: method as in PMID 29748663; details: cited from earlier work
KCNQ3* [8] = molecular target: T1, KCNQ3*; design: method as in PMID 29748663; details: cited from earlier work
KCNQ2 [9] = molecular target: T5, KCNQ2; design: method as in PMID 30021858; details: cited from earlier work
KCNQ3*-R242A = molecular target: T7, KCNQ3*-R242A (Homo sapiens, UniProt O43525, A315T/R242A); assay: TEVC of homomeric KCNQ3*-R242A; type: cell-based; details: 100 µM
T7 sequence (O43525 1-872 R242A/A315T): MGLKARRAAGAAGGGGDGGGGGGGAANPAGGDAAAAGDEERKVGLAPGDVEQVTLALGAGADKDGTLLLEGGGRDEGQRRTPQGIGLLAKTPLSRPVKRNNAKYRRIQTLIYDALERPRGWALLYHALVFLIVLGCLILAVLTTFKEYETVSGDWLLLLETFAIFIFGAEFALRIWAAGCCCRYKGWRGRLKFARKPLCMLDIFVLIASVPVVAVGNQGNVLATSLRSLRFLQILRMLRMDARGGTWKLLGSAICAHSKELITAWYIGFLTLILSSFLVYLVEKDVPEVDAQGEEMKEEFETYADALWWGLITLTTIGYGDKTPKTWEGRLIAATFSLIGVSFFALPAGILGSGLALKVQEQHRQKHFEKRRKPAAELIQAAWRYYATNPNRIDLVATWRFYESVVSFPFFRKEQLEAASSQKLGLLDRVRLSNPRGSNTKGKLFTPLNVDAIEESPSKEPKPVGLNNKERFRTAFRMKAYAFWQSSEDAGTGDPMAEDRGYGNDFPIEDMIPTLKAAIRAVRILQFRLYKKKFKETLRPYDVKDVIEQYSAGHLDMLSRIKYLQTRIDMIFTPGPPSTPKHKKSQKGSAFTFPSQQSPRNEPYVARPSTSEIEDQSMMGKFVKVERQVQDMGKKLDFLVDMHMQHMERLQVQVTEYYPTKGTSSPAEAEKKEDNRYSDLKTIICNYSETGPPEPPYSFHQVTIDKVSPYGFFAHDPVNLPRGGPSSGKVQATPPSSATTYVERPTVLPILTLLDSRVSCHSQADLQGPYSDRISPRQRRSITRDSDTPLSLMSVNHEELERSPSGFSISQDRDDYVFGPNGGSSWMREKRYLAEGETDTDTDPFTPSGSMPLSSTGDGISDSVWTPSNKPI
Text: We generated cRNA transcripts encoding human KCNQ1, KCNQ2, KCNQ3, KCNQ4, KCNQ5 or GLRA1 (NM_001146040) (GenScript, Piscataway, NJ, USA) by in vitro transcription using the T7 polymerase mMessage mMachine kit (Thermo Fisher Scientific), after vector linearization, from cDNA sub-cloned into plasmids incorporating Xenopus laevis β-globin 5′ and 3′ UTRs flanking the coding region to enhance translation and cRNA stability. We quantified cRNA by spectrophotometry. We generated mutant KCNQ2 and KCNQ3 cDNAs by site-directed mutagenesis using a QuikChange kit (Stratagene, San Diego, CA) and prepared the corresponding cRNAs as above. […]
We performed TEVC at room temperature using an OC-725C amplifier (Warner Instruments, Hamden, CT) and pClamp10 software (Molecular Devices, Sunnyvale, CA) 2–5 days after cRNA injection as described in the section above. […] Currents were recorded in response to voltage pulses between −120 or −80 mV and + 40 mV at 20 mV intervals from a holding potential of −80 mV, to yield current-voltage relationships, current magnitude, and for quantifying activation rate. We analyzed data using Clampfit (Molecular Devices) and Graphpad Prism software (GraphPad, San Diego, CA, USA); values are stated as mean ± SEM. […]

KCNQ1 [10] = molecular target: T4, KCNQ1; details: cited from earlier work
KCNQ3* [11] = molecular target: T1, KCNQ3*; assay: [3H]GABA binding and competition, oocytes expressing KCNQ3*
Procedure: as §4

T3 sequence (O43525 whole entry): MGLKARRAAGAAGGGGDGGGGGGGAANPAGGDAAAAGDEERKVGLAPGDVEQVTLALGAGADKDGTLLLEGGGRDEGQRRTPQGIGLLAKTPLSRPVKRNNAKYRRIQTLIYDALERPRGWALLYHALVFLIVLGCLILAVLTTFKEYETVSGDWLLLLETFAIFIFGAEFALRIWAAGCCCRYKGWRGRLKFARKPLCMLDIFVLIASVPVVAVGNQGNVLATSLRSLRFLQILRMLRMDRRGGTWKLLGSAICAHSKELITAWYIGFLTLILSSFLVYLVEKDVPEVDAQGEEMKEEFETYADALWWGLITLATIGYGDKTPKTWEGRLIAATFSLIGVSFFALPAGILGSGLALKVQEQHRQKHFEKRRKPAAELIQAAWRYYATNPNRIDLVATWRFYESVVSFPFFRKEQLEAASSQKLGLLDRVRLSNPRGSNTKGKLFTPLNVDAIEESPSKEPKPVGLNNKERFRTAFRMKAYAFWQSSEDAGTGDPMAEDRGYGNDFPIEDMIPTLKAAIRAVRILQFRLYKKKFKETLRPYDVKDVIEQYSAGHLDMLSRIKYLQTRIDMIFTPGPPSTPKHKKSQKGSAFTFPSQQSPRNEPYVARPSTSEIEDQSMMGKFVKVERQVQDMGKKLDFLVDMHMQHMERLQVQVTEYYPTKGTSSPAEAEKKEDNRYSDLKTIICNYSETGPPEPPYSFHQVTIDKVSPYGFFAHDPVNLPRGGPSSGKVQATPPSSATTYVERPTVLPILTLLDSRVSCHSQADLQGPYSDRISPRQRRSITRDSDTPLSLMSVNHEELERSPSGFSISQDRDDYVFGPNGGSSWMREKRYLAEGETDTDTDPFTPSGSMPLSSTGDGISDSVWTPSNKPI
T3 sequence (O43526 whole entry): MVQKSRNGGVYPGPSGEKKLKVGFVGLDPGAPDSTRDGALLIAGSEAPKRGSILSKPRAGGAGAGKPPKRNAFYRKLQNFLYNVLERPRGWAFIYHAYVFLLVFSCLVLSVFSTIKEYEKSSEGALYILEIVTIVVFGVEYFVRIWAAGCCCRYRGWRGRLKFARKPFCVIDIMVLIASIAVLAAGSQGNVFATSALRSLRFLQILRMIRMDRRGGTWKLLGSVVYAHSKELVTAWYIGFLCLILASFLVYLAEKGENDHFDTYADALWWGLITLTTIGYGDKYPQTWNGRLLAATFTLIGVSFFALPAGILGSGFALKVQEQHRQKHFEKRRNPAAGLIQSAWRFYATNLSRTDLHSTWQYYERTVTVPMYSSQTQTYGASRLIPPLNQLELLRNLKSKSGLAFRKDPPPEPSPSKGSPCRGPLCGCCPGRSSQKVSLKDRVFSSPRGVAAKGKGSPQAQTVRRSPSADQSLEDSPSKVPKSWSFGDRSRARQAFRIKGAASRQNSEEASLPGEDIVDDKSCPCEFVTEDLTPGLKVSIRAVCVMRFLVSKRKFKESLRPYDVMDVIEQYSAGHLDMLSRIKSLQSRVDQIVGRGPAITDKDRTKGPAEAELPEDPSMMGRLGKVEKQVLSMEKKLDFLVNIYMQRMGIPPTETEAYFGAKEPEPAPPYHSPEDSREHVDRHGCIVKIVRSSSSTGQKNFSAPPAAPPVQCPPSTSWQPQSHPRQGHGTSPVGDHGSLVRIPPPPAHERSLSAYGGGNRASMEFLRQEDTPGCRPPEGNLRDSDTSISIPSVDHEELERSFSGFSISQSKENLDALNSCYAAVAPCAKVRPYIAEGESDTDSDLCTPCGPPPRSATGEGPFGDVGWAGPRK

NC(C(=O)O)c1ccc(F)cc1 (stereo not drawn) [4FPG, 4-(fluorophenyl)glycine]
KCNQ4 activation and deactivation rates (KCNQ4; 30 µM): speeded KCNQ2 and KCNQ4 activation and slowed their deactivation
EC50 (KCNQ4; ΔV0.5act, read-out: EC50, KCNQ4 activation): 49 ± 12 nM
effects on KCNQ3* (KCNQ3* [1]): no effects
effects on KCNQ5 (KCNQ5 [2]): no effects
EC50 (KCNQ2/3 [3]; read-out: EC50, KCNQ2/3 activation): 61 ± 42 nM
KCNQ1 activation and deactivation rates (KCNQ1 [4]; 30 µM): slowed KCNQ1 deactivation but did not speed its activation
EC50 (KCNQ1 [4]; ΔV0.5act, read-out: EC50, KCNQ1 activation): 90 ± 20 nM
KCNQ2 activation and deactivation rates (KCNQ2 [5]; 4FPG 30 µM, 2FPG 100 µM): speeded KCNQ2 and KCNQ4 activation and slowed their deactivation
EC50 (KCNQ2 [5]; wild-type KCNQ2, ΔV0.5act, read-out: EC50, KCNQ2 activation): 69 ± 31 nM

NCC(=O)O [glycine, reference compound]
effects on KCNQ4 (KCNQ4): unable to open
effects on KCNQ3* (KCNQ3* [1]): no effects
effects on KCNQ5 (KCNQ5 [2]): no effects
activation of GLRA1 (GLRA1): robust activation
activation of KCNQ2/3 (KCNQ2/3 [3]): nor does it activate KCNQ2/3; also recorded: no effect
effects on KCNQ2 (KCNQ2 [5]; dose response): unable to open
binding of tritiated ligand to wild-type KCNQ2/3 (KCNQ2/3 [6]; CPM over 30 min): did not
inhibition of GABA binding to wild-type KCNQ2/3 (KCNQ2/3 [6]; cold glycine 100 µM): did not inhibit GABA binding

NCC1(CC(=O)O)CCCCC1 [gabapentin]
activation of KCNQ5 (KCNQ5 [7]): activate only KCNQ3 and KCNQ5
activation of KCNQ3 (KCNQ3* [8]): activate only KCNQ3 and KCNQ5
activation of KCNQ2 (KCNQ2 [9]): not KCNQ2

CCOC(=O)Nc1ccc(NCc2ccc(F)cc2)cc1N [retigabine, reference compound]
EC50 (KCNQ2/3 [3]; EC50, KCNQ2/3 activation): 6900 nM and 6870 nM
effect on nonfunctional KCNQ3*-R242A (KCNQ3*-R242A): awakened neither by 3FMSG nor retigabine
activation of KCNQ1 (KCNQ1 [10]): does not activate KCNQ1

NCCCC(=O)O [GABA, γ-aminobutyric acid, reference compound]
effects on KCNQ4 (KCNQ4): unable to open
[3H]GABA binding to KCNQ3* (KCNQ3* [11]): bound
activation of KCNQ5 (KCNQ5 [7]): activate only KCNQ3 and KCNQ5
activation of KCNQ3 (KCNQ3* [8]): activate only KCNQ3 and KCNQ5
